One may read the IC50 as the concentration at which inhibition is half-maximal.

One data set has as its target T1, human IRAK-4 (Homo sapiens, UniProt Q9NWZ3).
T1 construct: purchased Carna Biosciences 09 145
T1 sequence (Q9NWZ3 1-460): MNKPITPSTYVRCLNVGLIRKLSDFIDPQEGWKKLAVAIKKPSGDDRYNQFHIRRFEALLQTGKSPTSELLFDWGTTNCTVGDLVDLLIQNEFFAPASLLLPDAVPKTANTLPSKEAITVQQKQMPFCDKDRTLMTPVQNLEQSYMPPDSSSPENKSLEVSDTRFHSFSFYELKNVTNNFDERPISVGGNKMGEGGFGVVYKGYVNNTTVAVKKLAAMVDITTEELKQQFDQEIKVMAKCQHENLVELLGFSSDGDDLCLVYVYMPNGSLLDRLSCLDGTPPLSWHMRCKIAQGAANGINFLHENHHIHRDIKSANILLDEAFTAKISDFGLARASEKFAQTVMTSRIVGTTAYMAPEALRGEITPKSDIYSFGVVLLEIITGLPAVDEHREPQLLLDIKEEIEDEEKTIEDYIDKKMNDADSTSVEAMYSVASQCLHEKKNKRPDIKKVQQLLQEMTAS
The data set is described as follows: Phosphorylation IC50 determination for human IRAK-4 (ADP-Glo kinase assay). The note with it: human IRAK-4, RIP140 substrate, Km ATP; read-out: IRAK4 ADPglo biochemical assay IC50. Here is the method:
3.1. Phosphorylation IC50 Determination for Human IRAK-4
The phosphorylation of the substrate RIP140 (SEQ ID1) by IRAK4 at Km ATP was detected with the ADP-Glo Kinase Assay (Promega, Cat #V9103), a luminescent kinase assay which measures the ADP formed from a kinase reaction. (Zegzouti et al. 2009) In a second step the kinase reaction was terminated and all the remaining ATP was depleted. In a final step the ADP was converted into ATP and this newly synthesized ATP was measured by using a luciferase/luciferin reaction with a luminescent reader. The luminescent signal positively correlated with kinase activity, in particular kinase inhibition giving a decrease of the luminescent signal.
For the semi-automated assay, the positive control (100% inhibition) was prepared by diluting 10 mM staurosporine stock mixture (20 μL) in water (3.8 mL) and DMSO (180 μL), thus resulting in a […] staurosporine solution at 1% DMSO (final concentration after further dilution in the kinase reaction).
For the automated assay, no pre-dilution of the 10 mM staurosporine stock was made. 10 mM staurosporine was spotted directly in the assay plate using acoustic dispensing and complemented with DMSO to result in a similar final concentration as mentioned above.
For the semi-automated assay, the negative control (0% inhibition) was prepared by mixing water (3.8 mL) and DMSO (200 μL) resulting in a final concentration of 1% DMSO after further dilution in the kinase reaction. For the automated assay no pre-dilution of DMSO was done. 100% DMSO was spotted directly on the assay plate.
The assay buffer solution was prepared at a concentration corresponding to 5 fold the final (most diluted) assay concentration by mixing a solution of 125 mM TRIS pH 7.5+0.05% Triton X-100+2.5 mM EGTA (5.27 mL) with 1M mgCl2 (72 μL), 1M DTT (57.6 μL), and 200 mM MnCl2 (360 μL).
For example, for the semi-automated method, the enzyme-substrate mixture was prepared by mixing water (3999 μL), assay buffer solution (1380 μL), 1 mM RIP140 (138 μL—SEQ ID1), and 200 ng/mL IRAK 4 (3.45 μL Carna Biosciences, 09 145).
For semi-automated method, the ATP mixture was prepared at a concentration corresponding to 2.5 fold the final (most diluted) assay concentration of the semi-automated method and 1.5 fold the final (most diluted) assay concentration of the automated method. For example, for the semi-automated method, the ATP mixture was prepared by mixing water (4126 μL), assay buffer solution (1380 μL), and 10 mM ATP (13.80 μL).
The assay was performed either in a semi-automated or fully automated manner. The assay volume and the incubation time of the ADP detection were different accordingly the method used.
3.1.3.1. Semi-Automated Assay
The compounds were prepared as a serial dilution of 10 point dose responses with 1/5 dilution steps in 100% DMSO starting from 2 mM highest concentration, diluted 1/20 in water. 1 μL was transferred dry to the assay plates.
On each assay plate 32 wells of each control (positive & negative) were added, followed by 2 μL enzyme-substrate mixture.
The reaction was started by adding 2 μL diluted ATP (final concentration Km ATP) on the assay plates. Plates were centrifuged for a few seconds at 1000 rpm followed by an incubation at r.t. for 120 min.
The reactions were stopped and the unconsumed ATP was depleted by adding 5 μL ADP-glo Reagent (Promega, Cat #V9103) to the reaction. The plates were quickly centrifuged at 1000 rpm and incubated at r.t. for 40 min corresponding to full ATP depletion.
The ADP was converted back to ATP and luciferase and luciferin were introduced to detect ATP by adding 10 μL kinase detection reagent (Promega, Cat #V9103) to the reaction. The plates were centrifuged for a few seconds at 1000 rpm and incubated at r.t. for a further 30 min.
Luminescent read out was performed on an Envision luminescent reader (Perkin Elmer). […]

Another data set concerns the target T2, hERG channel (Homo sapiens, UniProt Q12809).
T2 construct: host or cells: HEK293
The data set can be described thus: hERG channel test - manual patch clamp assay. The format is cell-based. The conditions noted are these: 10 μM, HEK293 cells stably transfected with hERG, tail current. The procedure:
4.7 hERG Channel Test—Manual Patch Clamp Assay
The aim of this assay is to determine the in-vitro effects of a test compound on hERG current ([…]) expressed in Human Embryonic Kidney (HEK) cells (evaluation of the blocking profile of test substance on the IKr-like potassium current mediated by hERG channel stably transfected in a human cell line), which is linked to cardiac safety.
The test substance is dissolved in pure dimethylsulfoxide (DMSO) by cold stirring to give a stock solution concentrated 333-fold as compared with the highest concentration to be tested. This stock solution is used to prepare the other stock solutions in DMSO. Each stock solution is used to prepare the solutions containing the final concentrations tested by dilution in extracellular solution (0.1, 1, 10 and 100 μM). Final concentration of DMSO should not not exceed 0.3%.
All formulations are prepared in glass containers.
If a slight opalescence persists at the highest concentration, a 50 μM (instead of 100 μM) concentration is tested.
DMSO diluted in extracellular solution (at the different concentrations used in the final test substance solutions) is used as vehicle.
The extracellular solution is constituted as follows (mM): K-gluconate: 4 mM/Na-gluconate: 145 mM/Mg-gluconate: 2 mM/Ca-gluconate: 3.5 mM/HEPES: 5 mM/glucose: 5 mM/mannitol: 20 mM. The pH is adjusted with NaOH to 7.40±0.05.
Human embryonic kidney (HEK293) cells are stably transfected with the hERG clone (Creacell) and are maintained at 37° C. in a 5% CO2/95% air incubator. Cells used for the study are transferred to an experimental chamber of approximately 2 mL which is maintained at a temperature of 35±0.5° C. by a thermoelectric device (Harvard Apparatus: Type TC-344B) and mounted on the platform of an inverted microscope (Olympus: Type IX-51 or Leica DMI3000 B). Cells are continuously superfused with Tyrode's solution constituted as follows (mM): NaCl: 145/KCl: 4/HEPES: 5/glucose: 5/CaCl2:1/MgCl2: 1.
Ionic currents from hERG-transfected cells are measured using the whole cell configuration of the patch clamp technique. Glass pipettes are pulled from borosilicate glass by a vertical puller (Sutter Instruments: Type P30). Pipette tip resistance is approximately 1.5 to 3.5 MΩ when filled with internal solution constituted as follows (mM): K-gluconate: 145/Mg-gluconate: 1/EGTA: 2/HEPES:5/K2ATP: 2.
The pipettes are connected to the input stage of a patch-clamp amplifier (Axon Instruments: Multiclamp 700B-1). Stimulation, data recording and analysis are performed using specialized Axon Instruments software (pClamp 9.2.0. or pClamp 10.3.0.2).
After rupture of the cell membrane (entering whole-cell mode), cells are stimulated every 10 seconds using the following protocol: 500 ms pulse to +10 mV from a holding potential of −80 mV followed by a 500 ms pulse to −40 mV during which tail current is measured.
Once the current under control conditions is stable, recordings are taken before (control) and after addition of the test substance. The effect of the test substance on tail current is monitored continuously until steady-state is reached. The peak tail current amplitude is averaged for 3 stimuli.
The following parameters are measured: • Cell capacitance (pF). • Peak tail current amplitude (pA).
Peak tail current measurements are normalized using the cell capacitance as an index of cell surface.
The cells will be considered as valid if cell capacitance <80 pF, access resistance <20 MΩ and holding current >−200 pA.
Results are expressed as absolute values and as percentage change from control (percentage of tail current inhibition).
The test substance is studied at 4 ascending concentrations on 3 hERG-transfected cells.
The concentration of test substance inducing 50% of inhibition (IC50) of tail current is determined, if possible, from each individual concentration-response curve. The equation is of the following form: […]
On the technique in general: The hERG channel carries a current that helps repolarise heart muscle cells.

T2 sequence (Q12809 whole entry): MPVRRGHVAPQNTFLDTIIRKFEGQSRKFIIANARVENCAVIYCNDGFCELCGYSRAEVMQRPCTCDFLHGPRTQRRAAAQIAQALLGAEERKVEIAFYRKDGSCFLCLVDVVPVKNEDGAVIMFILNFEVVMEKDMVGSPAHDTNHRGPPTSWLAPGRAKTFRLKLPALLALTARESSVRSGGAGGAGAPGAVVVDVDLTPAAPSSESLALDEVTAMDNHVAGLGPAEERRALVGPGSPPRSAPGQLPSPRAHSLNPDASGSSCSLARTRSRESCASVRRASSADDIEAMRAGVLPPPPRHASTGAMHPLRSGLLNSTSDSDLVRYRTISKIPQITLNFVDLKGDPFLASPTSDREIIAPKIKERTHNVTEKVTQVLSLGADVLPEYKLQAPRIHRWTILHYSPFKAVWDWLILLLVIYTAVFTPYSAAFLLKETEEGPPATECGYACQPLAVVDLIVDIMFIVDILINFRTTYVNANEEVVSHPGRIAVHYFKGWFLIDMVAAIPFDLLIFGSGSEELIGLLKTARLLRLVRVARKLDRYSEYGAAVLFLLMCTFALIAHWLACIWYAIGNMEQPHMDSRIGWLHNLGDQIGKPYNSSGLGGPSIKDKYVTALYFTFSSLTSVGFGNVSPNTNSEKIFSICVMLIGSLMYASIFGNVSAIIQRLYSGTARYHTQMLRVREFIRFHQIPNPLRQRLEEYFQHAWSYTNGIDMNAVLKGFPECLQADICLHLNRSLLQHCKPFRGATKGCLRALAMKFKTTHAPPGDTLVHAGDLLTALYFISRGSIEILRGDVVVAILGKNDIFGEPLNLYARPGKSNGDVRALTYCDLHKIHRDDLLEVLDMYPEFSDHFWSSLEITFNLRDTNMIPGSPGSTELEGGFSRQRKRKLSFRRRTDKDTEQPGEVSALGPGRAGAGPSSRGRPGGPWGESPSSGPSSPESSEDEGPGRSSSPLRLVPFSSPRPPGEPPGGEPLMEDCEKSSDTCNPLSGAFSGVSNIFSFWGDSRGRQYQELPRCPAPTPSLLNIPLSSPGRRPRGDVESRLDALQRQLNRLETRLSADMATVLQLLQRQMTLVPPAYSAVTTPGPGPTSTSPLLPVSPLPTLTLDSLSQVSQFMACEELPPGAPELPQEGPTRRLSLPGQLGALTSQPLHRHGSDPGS

On to `CC(C)(O)CCc1cn2cc(NC(=O)c3cccc(C(F)(F)F)n3)c(C(=O)NCC(F)(F)F)cc2n1` [Compound 41, 2-(3-hydroxy-3-methylbutyl)-N-(2,2,2-trifluoroethyl)-6-(6-(trifluoromethyl)picolinamido)imidazo[1,2-a]pyridine-7-carboxamide], for which the IC50 at human IRAK-4 was 0.1 to 5 nM. Also, at hERG channel, the “hERG Manual Patch Clamp Single dose PIN (10 μM)” value was −17%.

These data come from patent US20220194938A1, “NOVEL COMPOUNDS AND PHARMACEUTICAL COMPOSITIONS THEREOF FOR THE TREATMENT OF INFLAMMATORY DISORDERS” (GALAPAGOS NV, priority 2019, published 2022).
